{"source": "patent US8592421B2", "about": "“Cyclic bioisosters of purine system derivatives and a pharmaceutical composition based thereon” (priority 2003, dated 2013)", "key": {"[1]": {"system": "thrombocytes", "test": "ADP-induced aggregation of thrombocytes after intravenous administration (in vivo)", "set-up": "species or system rabbit", "protocol": "The experiments were carried out on male rabbits of the “Chinchilla” breed having a mass of 2.7±0.3 kg. 18-24 hours prior to the experiment they were deprived of feed while preserving free access to water.\nTo obtain plasma enriched with thrombocytes, blood was taken from a cut of a marginal vein of the rabbit ear, the sample was stabilized with 3.8% of sodium citrate solution in a ratio of 9:1 and centrifuged at 200 g (1000 rev/min) for 10 minutes. The top supernatant layer enriched with thrombocytes was transferred by an automatic dropper into a silicone test tube and kept at 37° C. The plasma enriched with thrombocytes contained, on the average, […]. If this content exceeded the specified 3×10^8 blood platelets in 1 liter, this sample was diluted to the necessary concentration with plasma deprived of thrombocytes, which was obtained by centrifuging blood at 650 g during 10 minutes.\nThe measurements of the optical density of the samples were made on two-channel aggregometer of the “Chronolog” Company (USA). A flask containing 490 mkl of plasma rich with thrombocytes was placed in a device, into which a magnetic agitator covered with Teflon was lowered. The index of maximum amplitude of aggregation (MA) in percent of a fall of the plasma optical density under effect of the aggregation inductor was recorded. The control index MA of plasma was compared with the MA of plasma incubated for 3 minutes with different concentrations of the compounds: from 10^−3 to 10^−7 in vitro experiments or with plasma obtained 15, 30, 60 and 120 minutes after intravenous administration of different doses of the compounds in vivo experiments.\nThe process of aggregation of thrombocytes was recorded with the help of a computer; on the monitor screen the there were depicted curves reflecting changes of the optical density of the plasma enriched which was taken as a standard 100% compared to the optical density of the non-thrombocyte plasma taken for 0% content of thrombocytes.\nThe antiaggregative capability of compounds 2, 15, 21, 37, according to the invention was tested in experiments in vivo. Introduced to the test animals intravenously were an aggregation inductor ADP at a concentration of 10^−5 M was and then the compounds according to the invention. The doses of the compounds were in a range from 15 to 60 mg/kg.\nFor leveling the different effects of the compounds in different days due the ambient temperature, humidity and other parameters, 2 animals of each series were taken for experiments every day. Under “series” there is understood a group of 6 animals used for studying one of the doses of the compounds.\nThe blood for obtaining plasma enriched with thrombocytes was taken from marginal vein of the rabbit ear: in the control group—directly before introducing the tested compounds; in investigated groups—15 minutes after introducing these compounds and then after 30, 60, 120 minutes and so on up to the moment when the effect of suppression of aggregation disappeared.\nThe quantity of thrombocytes was counted before the experiment and at the end thereof in each plasma sample."}, "[2]": {"test": "Morphine abstinence model: thymus condition (mass, nitrites)", "type": "in vivo, rats", "settings": "for Nitrites in thymus supernatant: control 0.331 ± 0.041; for Thymus mass: control 230 ± 14", "excerpt": "The spectrometric method is based the reaction of nitrites with the Griss reagent (a mixture of 2% solution of sulfanilamide and 0.2% N-(1-naphthyl)ethylene diamine. At the first step the nitrite reacts with sulfanilamide with formation of diazonium salt, and then with the second component to form azo dye with an adsorption maximum at 540 nm. For reduction of nitrates into nitrites, a fermentative method was used with bacterial reductase nitrate (Grisham M. B. et al., 1995). The samples of plasma and supernathant of the liver deproteinizated at 100° C. for 5 minutes incubated for 30 minutes at 37° C. in 50.0 mM of HEPES pH 7.4 in the presence of 0.2 unit/ml of Aspergillus reductase nitrate, 5.0 mkM of FAD and 0.1 mM of NAD-Ph. At the end of the reaction lactate dehydrogenase and pyruvate were added for isolation of NAD-Ph interfering with the Griss reaction. Then the Griss reagent was added and after 10-minute incubation the light absorption of the samples was measured at 540 nm. To amount of NOX^− was calculated using sodium nitrate as a standard.\nThe effect of the compounds according to the invention on the condition of the thymus of the rats was also investigated: a control group, an experimental group of morphinized animals and an experimental group of animals were first morphinized and then injected with the compounds according to the invention. The experiment was carried out similarly to that described above."}, "[3]": {"test": "Chronic toxicity of suppositories: biochemical indexes of blood serum;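 on all read-outs here: inbred rats dosed rectally with softened suppositories, controls given matching volumes of sterile medical liquid paraffin, serum sampled one month into a two-month dosing course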", "type": "in vivo, rats", "settings": "male rats, suppositories, 1 month; for Cholesterol in blood serum: control 3.02 ± 0.08; for Urea in blood serum: control 8.44 ± 0.60; for Glucose in blood serum: control 9.76 ± 0.15; for ALT in blood serum: control 11.33 ± 1.96; for AST in blood serum: control 19.13 ± 1.02; for Bilirubin in blood serum: control 35.93 ± 2.19; for Creatinine in blood serum: control 40.23 ± 2.84; for Alkalinous phosphatase in blood serum: control 40.74 ± 1.57; for Total protein in blood serum: control 94.89 ± 6.67", "method": "Two doses of preparations used in the experiments: 50 mg/kg and 500 mg/kg. Before the administration, the suppositories were softened by heating in a glass water bath at a temperature of 38-39° C., the soft mass was collected in tuberculin syringe in a volume of 1 ml, a needle with oliva was attached to the syringe, and the preparatory mass was introduced into the rectum of the animal for a depth of 1.5-2.0 cm. The animals of the control group were administered with sterile medical liquid paraffin in a volume corresponding to the volume of the investigated suppository. A complete course of administration of drugs to the animals was two months. A complex of laboratory diagnostic investigations was carried out one month after the beginning of the administration of the preparation to the animal—in a middle of the course (8 animals), two months after ending the course (8 animals) and three months after ending the recovery period of one month (8 animals). The mass of the body of the rats in the first month of administration of the preparation was determined weekly, and then once in two weeks. On the basis of the dynamics of an index of the mass of the animal body, the volume of preparation being administered was corrected taking into account the test dose."}, "[4]": {"test": "Chronic toxicity of suppositories: indexes of urine", "type": "in vivo, rats", "settings": "rats, suppositories rectal, 1 month after administration", "protocol": "The experiments were conducted on inbred rats."}, "[5]": {"settings": "Administration of morphine and compound"}}, "data": [{"smiles": "O=c1[nH][nH]c(=O)c2c(Br)ncnc12.[K]", "note": "[Compound 37, potassium salt of 4-bromine-pyrimido[4,5-D]-6H-pyridazine-5,8-dione]", "values": [{"measurement": "MA - drop of optical density", "setting": "[1]; 15.0 mg/kg intravenously, after 15 minutes, control 50.1 ± 1.7", "value": "42.9 ± 1.6", "unit": "%"}, {"measurement": "MA - drop of optical density", "setting": "[1]; 15.0 mg/kg intravenously, after 30 minutes, control 50.1 ± 1.7", "value": "41.9 ± 1.6", "unit": "%"}, {"measurement": "MA - drop of optical density", "setting": "[1]; 15.0 mg/kg intravenously, after 60 minutes, control 50.1 ± 1.7", "value": "45.9 ± 1.6", "unit": "%"}, {"measurement": "MA - drop of optical density", "setting": "[1]; 15.0 mg/kg intravenously, after 120 minutes, control 50.1 ± 1.7", "value": "48.7 ± 2.1", "unit": "%"}, {"measurement": "MA - drop of optical density", "setting": "[1]; 30.0 mg/kg intravenously, after 15 minutes, control 61.0 ± 1.3", "value": "43.5 ± 2.0", "unit": "%"}, {"measurement": "MA - drop of optical density", "setting": "[1]; 30.0 mg/kg intravenously, after 30 minutes, control 61.0 ± 1.3", "value": "42.0 ± 1.4", "unit": "%"}, {"measurement": "MA - drop of optical density", "setting": "[1]; 30.0 mg/kg intravenously, after 60 minutes, control 61.0 ± 1.3", "value": "41.6 ± 1.4", "unit": "%"}, {"measurement": "MA - drop of optical density", "setting": "[1]; 30.0 mg/kg intravenously, after 120 minutes, control 61.0 ± 1.3", "value": "58.4 ± 1.7", "unit": "%"}, {"measurement": "MA - drop of optical density", "setting": "[1]; 60.0 mg/kg intravenously, after 15 minutes, control 48.6 ± 1.3", "value": "43.4 ± 1.8", "unit": "%"}, {"measurement": "MA - drop of optical density", "setting": "[1]; 60.0 mg/kg intravenously, after 30 minutes, control 48.6 ± 1.3", "value": "42.4 ± 0.7", "unit": "%"}, {"measurement": "MA - drop of optical density", "setting": "[1]; 60.0 mg/kg intravenously, after 60 minutes, control 48.6 ± 1.3", "value": "46.2 ± 2.0", "unit": "%"}, {"measurement": "MA - drop of optical density", "setting": "[1]; 60.0 mg/kg intravenously, after 120 minutes, control 48.6 ± 1.3", "value": "47.3 ± 1.7", "unit": "%"}, {"measurement": "Nitrites in thymus supernatant", "setting": "[2]; Administration of compounds", "value": "0.410 ± 0.01 nmol/mg of protein"}, {"measurement": "Thymus mass", "setting": "[2]; Administration of compounds", "value": "263 ± 21", "unit": "mg"}, {"measurement": "Nitrites in thymus supernatant", "setting": "[2]; [5]", "value": "0.387 ± 0.01 nmol/mg of protein"}, {"measurement": "Thymus mass", "setting": "[2]; [5]", "value": "228 ± 15", "unit": "mg"}, {"measurement": "Cholesterol in blood serum", "setting": "[3]; 50 mg/kg", "value": "2.48 ± 0.62", "unit": "mmol/L"}, {"measurement": "Urea in blood serum", "setting": "[3]; 50 mg/kg", "value": "9.36 ± 0.62", "unit": "Mkmol/l"}, {"measurement": "Glucose in blood serum", "setting": "[3]; 50 mg/kg", "value": "9.9 ± 0.51", "unit": "mM"}, {"measurement": "ALT in blood serum", "setting": "[3]; 50 mg/kg", "value": "8.98 ± 2.43", "unit": "unit/l"}, {"measurement": "AST in blood serum", "setting": "[3]; 50 mg/kg", "value": "19.97 ± 2.78", "unit": "unit/1"}, {"measurement": "Bilirubin in blood serum", "setting": "[3]; 50 mg/kg", "value": "42.17 ± 3.28", "unit": "mmol/L"}, {"measurement": "Creatinine in blood serum", "setting": "[3]; 50 mg/kg", "value": "46.84 ± 2.92", "unit": "mkmol/l"}, {"measurement": "Alkalinous phosphatase in blood serum", "setting": "[3]; 50 mg/kg", "value": "41.86 ± 5.26", "unit": "unit/l"}, {"measurement": "Total protein in blood serum", "setting": "[3]; 50 mg/kg", "value": "89.44 ± 7.22", "unit": "g/L"}, {"measurement": "Cholesterol in blood serum", "setting": "[3]; 500 mg/kg", "value": "2.64 ± 0.46", "unit": "mmol/L"}, {"measurement": "Urea in blood serum", "setting": "[3]; 500 mg/kg", "value": "10.57 ± 0.56", "unit": "Mkmol/l"}, {"measurement": "Glucose in blood serum", "setting": "[3]; 500 mg/kg", "value": "10.9 ± 0.84", "unit": "mM"}, {"measurement": "ALT in blood serum", "setting": "[3]; 500 mg/kg", "value": "9.56 ± 1.34", "unit": "unit/l"}, {"measurement": "AST in blood serum", "setting": "[3]; 500 mg/kg", "value": "18.21 ± 1.87", "unit": "unit/1"}, {"measurement": "Bilirubin in blood serum", "setting": "[3]; 500 mg/kg", "value": "41.45 ± 7.18", "unit": "mmol/L"}, {"measurement": "Creatinine in blood serum", "setting": "[3]; 500 mg/kg", "value": "47.13 ± 9.82", "unit": "mkmol/l"}, {"measurement": "Alkalinous phosphatase in blood serum", "setting": "[3]; 500 mg/kg", "value": "42.18 ± 2.34", "unit": "unit/l"}, {"measurement": "Total protein in blood serum", "setting": "[3]; 500 mg/kg", "value": "70.88 ± 7.24", "unit": "g/L"}, {"measurement": "Bilirubin (urine)", "setting": "[4]; dose 50 mg/kg", "value": "<5", "unit": "Mkmol/l"}, {"measurement": "Glucose (urine)", "setting": "[4]; dose 50 mg/kg", "value": "<5", "unit": "mmol/L"}, {"measurement": "Ketone bodies (urine)", "setting": "[4]; dose 50 mg/kg", "value": "<1", "unit": "mmol/L"}, {"measurement": "Potassium (urine)", "setting": "[4]; dose 50 mg/kg", "value": "6.12 ± 1.4", "unit": "g/L"}, {"measurement": "Protein (urine)", "setting": "[4]; dose 50 mg/kg", "value": "0.70 ± 0.19", "unit": "g/L"}, {"measurement": "Sodium (urine)", "setting": "[4]; dose 50 mg/kg", "value": "1.4 ± 0.2", "unit": "g/L"}, {"measurement": "Urea (urine)", "setting": "[4]; dose 50 mg/kg", "value": "427 ± 137", "unit": "mmol/L"}, {"measurement": "Urobilinogen (urine)", "setting": "[4]; dose 50 mg/kg", "value": "<15", "unit": "Mkmol/l"}, {"measurement": "pH (urine)", "setting": "[4]; dose 50 mg/kg", "value": "6.4 ± 0.4"}, {"measurement": "Bilirubin (urine)", "setting": "[4]; dose 500 mg/kg", "value": "<5", "unit": "Mkmol/l"}, {"measurement": "Glucose (urine)", "setting": "[4]; dose 500 mg/kg", "value": "<5", "unit": "mmol/L"}, {"measurement": "Ketone bodies (urine)", "setting": "[4]; dose 500 mg/kg", "value": "<1", "unit": "mmol/L"}, {"measurement": "Potassium (urine)", "setting": "[4]; dose 500 mg/kg", "value": "6.44 ± 1.3", "unit": "g/L"}, {"measurement": "Protein (urine)", "setting": "[4]; dose 500 mg/kg", "value": "0.72 ± 0.14", "unit": "g/L"}, {"measurement": "Sodium (urine)", "setting": "[4]; dose 500 mg/kg", "value": "0.88 ± 0.4", "unit": "g/L"}, {"measurement": "Urea (urine)", "setting": "[4]; dose 500 mg/kg", "value": "489 ± 152", "unit": "mmol/L"}, {"measurement": "Urobilinogen (urine)", "setting": "[4]; dose 500 mg/kg", "value": "<15", "unit": "Mkmol/l"}, {"measurement": "pH (urine)", "setting": "[4]; dose 500 mg/kg", "value": "6.2 ± 0.3"}]}]}
